A value given as a limit tells only on which side of the number the result lay.

This assay deals with T1, Recombinant HCV polymerase (Hepatitis C virus genotype 1b, UniProt P26663).
T1 construct: 2.5 pmoles (0.15 μg) HCV polymerase protein
T1 sequence (P26663 2420-3010): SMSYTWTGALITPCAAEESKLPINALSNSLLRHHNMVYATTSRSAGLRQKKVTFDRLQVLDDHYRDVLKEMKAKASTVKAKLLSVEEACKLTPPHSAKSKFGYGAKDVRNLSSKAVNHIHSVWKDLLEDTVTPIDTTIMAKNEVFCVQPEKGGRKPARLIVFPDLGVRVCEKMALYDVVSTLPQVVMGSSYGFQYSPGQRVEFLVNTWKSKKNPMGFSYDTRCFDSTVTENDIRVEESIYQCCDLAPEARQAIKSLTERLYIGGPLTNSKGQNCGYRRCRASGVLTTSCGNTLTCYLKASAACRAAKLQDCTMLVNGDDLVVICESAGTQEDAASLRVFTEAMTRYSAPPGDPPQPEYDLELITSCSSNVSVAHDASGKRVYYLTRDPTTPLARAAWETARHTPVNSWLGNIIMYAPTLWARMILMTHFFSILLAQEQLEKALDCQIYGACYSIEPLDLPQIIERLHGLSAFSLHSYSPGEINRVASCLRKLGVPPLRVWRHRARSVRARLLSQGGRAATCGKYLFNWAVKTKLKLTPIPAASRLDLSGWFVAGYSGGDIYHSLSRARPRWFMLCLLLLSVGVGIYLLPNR
In words: HCV Polymerase Inhibition Assay. Format: biochemical. The following applies: primer/template-directed transcription, 30 minutes at 30° C.; category symbol. The essentials: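 Recombinant genotype 1b polymerase (2.5 pmol) extended biotin-dG12 on poly(rC)300 with 1 μM GTP plus α-32P-GTP, pH 7.2, 30 min at 30 °C, 1% DMSO final; DE-filter-bound product counted. IC50 fitted from triplicate cpm, refitted with enzyme-concentration (30 nM) tight-binding equation when below 200 nM.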
For the molecule `O=C1OC(CCc2ccc(OCc3ccccc3)cc2)(C2CCCC2)CC(O)=C1Sc1nc(O)c2cc[nH]c2n1` (stereo not shown) [Example 123, 6-{2-[4-(Benzyloxy)phenyl]ethyl}-6-cyclopentyl-4-hydroxy-3-[(4-hydroxy-7H-pyrrolo[2,3-d]pyrimidin-2-yl)thio]-5,6-dihydro-2H-pyran-2-one], the IC50 was less than 1 µM.

Take `COc1ccc(CCC2(C3CCCC3)CC(O)=C(Sc3nc[nH]n3)C(=O)O2)cc1Cl` (stereo not shown) [Example 124, 6-[2-(3-Chloro-4-methoxy-phenyl)-ethyl]-6-cyclopentyl-4-hydroxy-3-(1 H[1,2,4]triazol-3-ylsulfanyl)-5,6-dihydro-pyran-2-one]: the IC50 was less than 1 µM.

For the molecule `COc1ccc(CCC2(C3CCCC3)CC(O)=C(Sc3nnc(C)s3)C(=O)O2)cc1Cl` (stereo not shown) [Example 125, 6-[2-(3-Chloro-4-methoxy-phenyl)-ethyl]-6-cyclopentyl-4-hydroxy-3-(5-methyl-[1,3,4]thiadiazol-2-ylsulfanyl)-5,6-dihydro-pyran-2-one], the IC50 is less than 1 µM.

For `COc1ccc(CCC2(C3CCCC3)CC(O)=C(Sc3ccc(O)cc3)C(=O)O2)cc1Cl` (stereo not shown) [Example 126, 6-[2-(3-Chloro-4-methoxy-phenyl)-ethyl]-6-cyclopentyl-4-hydroxy-3-(4-hydroxy-phenylsulfanyl)-5,6-dihydro-pyran-2-one], the IC50 was less than 1 µM.

Turning to `COc1ccc(CCC2(C3CCCC3)CC(O)=C(Sc3nc4ccccc4o3)C(=O)O2)cc1Cl` (stereo not shown) [Example 127, 3-(Benzooxazol-2-ylsulfanyl)-6-[2-(3-chloro-4-methoxy-phenyl)-ethyl]-6-cyclopentyl-4-hydroxy-5,6-dihydro-pyran-2-one], the IC50 is less than 1 µM.

For the molecule `COc1ccc(CCC2(C3CCCC3)CC(O)=C(Sc3nc4ccccc4[nH]3)C(=O)O2)cc1Cl` (stereo not shown) [Example 128, 3-(1H-Benzoimidazol-2-ylsulfanyl)-6-[2-(3-chloro-4-methoxy-phenyl)-ethyl]-6-cyclopentyl-4-hydroxy-5,6-dihydro-pyran-2-one], the IC50 is less than 1 µM.

Regarding `Cc1cc(SC2=C(O)CC(CCc3ccc(O)cc3)(C3CCCC3)OC2=O)c(C(C)(C)C)cc1CO` (stereo not shown) [Example 133, 3-(2-tert-butyl-4-hydroxymethyl-5-methyl-phenylsulfanyl)-6-cyclopentyl-4-hydroxy-6-[2-(4-hydroxy-phenyl)-ethyl]-5,6-dihydro-pyran-2-one], the IC50 is less than 1 µM.

Turning to `Cc1cc(SC2=C(O)CC(CCc3ccco3)(C(C)C)OC2=O)c(C(C)(C)C)cc1CO` (stereo not shown) [Example 134], the half-maximal inhibitory concentration (IC50) is 1 to 10 µM.

For `Cc1cc(SC2=C(O)CC(CCc3ccc(O)cc3)(C3CCCCC3)OC2=O)c(C(C)(C)C)cc1OS(=O)(=O)c1ccccc1` (stereo not shown) [Example 135, Benzenesulfonic acid 5-tert-butyl-4-{6-cyclohexyl-4-hydroxy-6-[2-(4-hydroxy-phenyl)-ethyl]-2-oxo-5,6-dihydro-2H-pyran-3-ylsulfanyl}-2-methyl-phenyl ester], the IC50 lay in the range of 10 to 50 µM.

For the molecule `Cc1cc(SC2=C(O)CC(CCc3ccc(O)cc3)(C3CCCC3)OC2=O)c(C(C)(C)C)cc1N` (stereo not shown) [Example 136, 3-(4-Amino-2-tert-butyl-5-methyl-phenylsulfanyl)-6-cyclopentyl-4-hydroxy-6-[2-(4-hydroxy-phenyl)-ethyl]-5,6-dihydro-pyran-2-one], the IC50 is less than 1 µM.

Consider `Cc1ccc(S(=O)(=O)Oc2cc(C(C)(C)C)c(SC3=C(O)CC(CCc4ccc(O)cc4)(C4CCCCC4)OC3=O)cc2C)cc1` (stereo not shown) [Example 137, Toluene-4-sulfonic acid 5-tert-butyl-4-(6-Cyclohexyl-4-hydroxy-6-[2-(4-hydroxy-phenyl)-ethyl]-2-oxo-5,6-dihydro-2H-pyran-3-ylsulfanyl)-2-methyl-phenyl ester], for which the 50% inhibitory concentration (IC50) lay in the range of 10 to 50 µM.

Consider `Cc1cc(SC2=C(O)CC(CCc3cc(Cl)c(N)c(Cl)c3)(C(C)C)OC2=O)c(C(C)(C)C)cc1N` (stereo not shown) [Example 138, 3-(4-Amino-2-tert-butyl-5-methyl-phenylsulfanyl)-6-[2-(4-amino-3,5-dichloro-phenyl)-ethyl]-4-hydroxy-6-isopropyl-5,6-dihydro-pyran-2-one], for which the 50% inhibitory concentration (IC50) lay within 10 to 50 µM.

For the molecule `Cc1cc(SC2=C(O)CC(CCc3ccc(O)cc3)(C3CCCCC3)OC2=O)c(C(C)(C)C)cc1OS(=O)(=O)c1ccc(C#N)cc1` (stereo not shown) [Example 139, 4-Cyano-benzenesulfonic acid 5-tert-butyl-4-{6-cyclohexyl-4-hydroxy-6-[2-(4-hydroxy-phenyl)-ethyl]-2-oxo-5,6-dihydro-2H-pyran-3-ylsulfanyl}-2-methyl-phenyl ester], the concentration for half-maximal inhibition (IC50) was 1 to 10 µM.

`Cc1cc(SC2=C(O)CC(CCC(C)C)(C3CCCC3)OC2=O)c(C(C)(C)C)cc1CO` (stereo not shown) [Example 144, 3-(2-tert-butyl-4-hydroxymethyl-5-methyl-phenylsulfanyl)-6-cyclopentyl-4-hydroxy-6-(3-methyl-butyl)-5,6-dihydro-pyran-2-one]: the IC50 was greater than 50 µM.

In the case of `Cc1cc(SC2=C(O)CC(CCC3CCCC3)(C3CCCC3)OC2=O)c(C(C)(C)C)cc1CO` (stereo not shown) [Example 145, 3-(2-tert-butyl-4-hydroxymethyl-5-methyl-phenylsulfanyl)-6-cyclopentyl-6-(2-cyclopentyl-ethyl)-4-hydroxy-5,6-dihydro-pyran-2-one], the 50% inhibitory concentration (IC50) is 10 to 50 µM.

Regarding `Cc1cc(SC2=C(O)CC(CCc3ccc(O)cc3)(C3CCCC3)OC2=O)c(C(C)(C)C)cc1C(N)=O` (stereo not shown) [Example 146, 5-tert-butyl-4-{6-Cyclopentyl-4-hydroxy-6-[2-(4-hydroxy-phenyl)-ethyl]-2-oxo-5,6-dihydro-2H-pyran-3-ylsulfanyl}-2-methyl-benzamide], the half-inhibitory concentration (IC50) was 1 to 10 µM.

With `O=C1C=C(O)CC(CCC2CCCC2)(C2CCCC2)O1` (stereo not shown) [Example 150, 6-Cyclopentyl-6-(2-cyclopentyl-ethyl)-4-hydroxy-5,6-dihydro-pyran-2-one], the IC50 is 10 to 50 µM.

Regarding `CC(C)CCC1(C2CCCC2)CC(O)=CC(=O)O1` (stereo not shown) [Example 151, 6-Cyclopentyl-4-hydroxy-6-(3-methyl-butyl)-5,6-dihydro-pyran-2-one], the IC50 was greater than 50 µM.

`Cc1cc(SC2=C(O)C[C@@](CCc3cccc(O)c3)(C3CCCC3)OC2=O)c(C(C)(C)C)cc1CO` [Example 152, (S)-3-(2-tert-butyl-4-hydroxymethyl-5-methyl-phenylsulfanyl)-6-cyclopentyl-4-hydroxy-6-[2-(3-hydroxy-phenyl)-ethyl]-5,6-dihydro-pyran-2-one]: the IC50 lay in the range of 1 to 10 µM.

With `Cc1cc(SC2=C(O)C[C@](CCc3cccc(O)c3)(C3CCCC3)OC2=O)c(C(C)(C)C)cc1CO` [Example 153, (R)-3-(2-tert-butyl-4-hydroxymethyl-5-methyl-phenylsulfanyl)-6-cyclopentyl-4-hydroxy-6-[2-(3-hydroxy-phenyl)-ethyl]-5,6-dihydro-pyran-2-one], the half-inhibitory concentration (IC50) was less than 1 µM.

In the case of `Cc1cc(SC2=C(O)CC(CCc3ccc(O)cc3)(c3ccccc3)OC2=O)c(C(C)(C)C)cc1CO` (stereo not shown) [Example 154, 3-(2-tert-butyl-4-hydroxymethyl-5-methyl-phenylsulfanyl)-4-hydroxy-6-[2-(4-hydroxy-phenyl)-ethyl]-6-phenyl-5,6-dihydro-pyran-2-one], the IC50 was greater than 50 µM.

For `O=C1O[C@](CCc2cccc(O)c2)(C2CCCC2)CC(O)=C1N(c1ccccc1)c1ccccc1` [Example 156, (S)-6-Cyclopentyl-3-diphenylamino-4-hydroxy-6-[2-(3-hydroxy-phenyl)-ethyl]-5,6-dihydro-pyran-2-one], the IC50 was in the range of 10 to 50 µM.

The term IC50 denotes the concentration that gives 50% inhibition.
